“Also recorded” adds a separate entry of the source.
Columns and labels:
B cell receptor (BCR) = test: Ex vivo anti-IgM induced CD86 and CD69 expression on splenocyte B cells after oral dosing of mice; type: in vivo, mouse; details: single oral 25 mg/kg
Protocol: B cell stimulation through the B cell receptor (BCR) with antibodies (e.g., anti-IgM) results in the activation of BTK and subsequent cellular changes, including the upregulation of various cell surface receptors. Measuring the inhibition of BCR induced protein phosphorylation downstream of Btk, and the inhibition of surface receptor upregulation provides a way to assess the Btk inhibitor activity. In the first study, the BTK target occupancy in splenocytes was measured over time, providing evidence for BTK resynthesis in the tissue compartment of interest.
Mice were sacrificed at 3, 6, 12, 18, and 24 hours after treatment with the BTK inhibitors (FIG. 27A, FIG. 27B, and FIG. 27C). Spleens were harvested and splenocyte preparations were made for flow cytometry analysis of B cell functions. Fresh or cryopreserved splenocytes were cultured with a-IgM to stimulate BCR, and the up-regulation of CD69, an early functional marker of B cell activation, was analyzed by flow cytometry.

[1] = Plasma pharmacokinetics in healthy volunteers; type: in vivo, human; details: 15 mg QD Day 1 vs Day 7; 15 mg and 25 mg studies
Protocol: Forty, healthy adult, non-tobacco using men and women were enrolled in the study. A 15 mg Formula (II) dose (1×15 mg capsule) was administered once daily (QD) to each subject for 7 consecutive days (Days 1 to 7) with a washout period (6 days). PD blood samples were collected from each subject before dosing on Day 1, throughout the study, and up to 144 hours after dosing on Day 7 to characterize Formula (II) PD effects. PK sampling for Formula (II) was also collected before dosing on Day 1, throughout the study, and for 24 hours after dosing on Day 7. Additionally, potential Formula (II) safety issues were monitored through physical examination, vital sign measurements, 12 lead electrocardiograms (ECGs), AEs and clinical laboratory tests.
The mean measured plasma concentration of Formula (II) versus time data (PK data) and mean occupancy of BTK by Formula (II) (PD data) were fitted with biophase compartment PK and PD models, respectively to enable prediction of PK and PD for different doses, dose regimens and dose durations. The biophase compartment PK model used to fit Formula (II) concentration versus time data is depicted in FIG. 1(A). The model is a naïve, mean data, two-compartment PK model with a delay d(1,3) for oral absorption. Fitting (optimization) was accomplished via weighed least squares. […]

[2] = tested on: established type II collagen-induced arthritis (CIA) in DBA/1 mice; test: 14-day mouse established type II collagen-induced arthritis (CIA), PO QD (Example 10); type: in vivo; details: for AUC (All Paws) - Corrected for Initial Score / Change in Body Weight (g) / Histopathology Summed Score Knees / Histopathology Summed Score Paws / Histopathology Summed Score Six-Joints / Paw Score AUC (All Paws): mean(SE); for disease-induced body weight loss (percent change from baseline) vs vehicle controls / arthritis scores measured daily vs vehicle controls: p<0.05 on the days printed
[3] = 5 mg/kg PO QD, therapeutic paws only
[4] = 25 mg/kg PO QD, therapeutic paws only

CC#CC(=O)N1CCC[C@H]1c1nc(-c2ccc(C(=O)Nc3ccccn3)cc2)c2c(N)nccn12 [Formula (II), (S)-4-(8-amino-3-(1-(but-2-ynoyl)pyrrolidin-2-yl)imidazo[1,5-a]pyrazin-1-yl)-N-(pyridin-2-yl)benzamide]
inhibition at 25 mg/kg (B cell receptor (BCR); Mus musculus, B-cell, 3-24 hours, read-out: CD69 % inhibition over the entire time course): 84.3%
inhibition of ex vivo anti-IgM induced responses in B cells (B cell receptor (BCR); 3 hours post-dose): near complete inhibition
inhibition of CD86 and CD69 expression (B cell receptor (BCR); persisting for 24 hours): partial inhibition
accumulation or change in PK after repeat dosing [1]: no apparent accumulation; also recorded: little to no accumulation or change in PK after repeat dosing
AUC (All Paws) - Corrected for Initial Score ([2]; 1 mg/kg PO QD): 14.99(3.62)
Change in Body Weight (g) ([2]; 1 mg/kg PO QD): −0.36(0.77) g
Histopathology Summed Score Knees ([2]; 1 mg/kg PO QD): 4.90(1.32)
Histopathology Summed Score Paws ([2]; 1 mg/kg PO QD): 7.95(1.54)
Histopathology Summed Score Six-Joints ([2]; 1 mg/kg PO QD): 6.93(1.22)
Paw Score AUC (All Paws) ([2]; 1 mg/kg PO QD): 22.14(4.11)
disease-induced body weight loss (percent change from baseline) vs vehicle controls ([2]; 1 mg/kg PO QD): significantly inhibited toward normal
daily arthritis scores vs vehicle controls ([2]; 1 mg/kg PO QD, prophylactic paws): significantly reduced toward normal
knee histopathology parameters ([2]; 1 mg/kg, compared to 1 mg/kg ibrutinib): significantly improved
six-joint histopathology, reduction of summed scores vs vehicle controls ([2]; 5 mg/kg PO QD): 86%
total body weight loss from enrollment to study termination ([2]; 5 mg/kg PO QD): significantly inhibited
Clinical arthritis scores AUC, reduction vs vehicle controls ([2]; 5 mg/kg PO QD, all paws): 82%
Clinical arthritis scores AUC, reduction when corrected for initial enrollment score ([2]; 5 mg/kg PO QD, all paws): 99%
arthritis scores measured daily vs vehicle controls ([2]; 5 mg/kg PO QD, all paws): significantly reduced toward normal
AUC (All Paws) - Corrected for Initial Score ([2]; 5 mg/kg PO QD): *0.43(2.76)
Change in Body Weight (g) ([2]; 5 mg/kg PO QD): *1.23(0.52) g
Histopathology Summed Score Knees ([2]; 5 mg/kg PO QD): *1.48(0.94)
Histopathology Summed Score Paws ([2]; 5 mg/kg PO QD): *2.23(0.72)
Histopathology Summed Score Six-Joints ([2]; 5 mg/kg PO QD): *1.98(0.69)
Paw Score AUC (All Paws) ([2]; 5 mg/kg PO QD): *7.58(2.63)
disease-induced body weight loss (percent change from baseline) vs vehicle controls ([2]; 5 mg/kg PO QD): significantly inhibited toward normal
daily arthritis scores vs vehicle controls ([2]; 5 mg/kg PO QD, prophylactic paws): significantly reduced toward normal
Clinical arthritis scores AUC, reduction vs vehicle controls ([2]; 5 mg/kg PO QD, prophylactic paws only): 94%
daily arthritis scores vs vehicle controls ([2]; 5 mg/kg PO QD, therapeutic paws): significantly reduced toward normal
Clinical arthritis scores AUC, reduction vs vehicle controls [2, 3]: 64%
Clinical arthritis scores AUC, reduction when corrected for initial enrollment score [2, 3]: 110%
six-joint histopathology, reduction of summed scores vs vehicle controls ([2]; 25 mg/kg PO QD): 93%
total body weight loss from enrollment to study termination ([2]; 25 mg/kg PO QD): significantly inhibited
Clinical arthritis scores AUC, reduction vs vehicle controls ([2]; 25 mg/kg PO QD, all paws): 95%
Clinical arthritis scores AUC, reduction when corrected for initial enrollment score ([2]; 25 mg/kg PO QD, all paws): 115%
arthritis scores measured daily vs vehicle controls ([2]; 25 mg/kg PO QD, all paws): significantly reduced toward normal
AUC (All Paws) - Corrected for Initial Score ([2]; 25 mg/kg PO QD): *−5.24(1.36)
Change in Body Weight (g) ([2]; 25 mg/kg PO QD): *1.01(0.66) g
Histopathology Summed Score Knees ([2]; 25 mg/kg PO QD): *1.25(0.43)
Histopathology Summed Score Paws ([2]; 25 mg/kg PO QD): *0.94(0.40)
Histopathology Summed Score Six-Joints ([2]; 25 mg/kg PO QD): *1.04(0.36)
Paw Score AUC (All Paws) ([2]; 25 mg/kg PO QD): *1.91(0.96)
disease-induced body weight loss (percent change from baseline) vs vehicle controls ([2]; 25 mg/kg PO QD): significantly inhibited toward normal
daily arthritis scores vs vehicle controls ([2]; 25 mg/kg PO QD, prophylactic paws): significantly reduced toward normal
Clinical arthritis scores AUC, reduction vs vehicle controls ([2]; 25 mg/kg PO QD, prophylactic paws only): 100%
daily arthritis scores vs vehicle controls ([2]; 25 mg/kg PO QD, therapeutic paws): significantly reduced toward normal
Clinical arthritis scores AUC, reduction vs vehicle controls [2, 4]: 89%
Clinical arthritis scores AUC, reduction when corrected for initial enrollment score [2, 4]: 152%
spleen weights compared to vehicle controls ([2]; all dose groups PO QD): not significantly affected
